# Experiments:
# [1] = test system: human primary fibroblasts (PHF); test: Marker expression (immunohistochemistry) in human primary fibroblasts with SP alone or with NK1 antagonists; format: cell-based; details: SP 1 μM; 48 h;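 also: primary human dermal fibroblasts, immunostained with rabbit polyclonal antibodies against each marker, value is percentage of stained cells among all cells counted in 20 fields at 400× per section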
# Experimental: These PHF were obtained and purified from samples obtained from the dermis of the skin of healthy volunteers as described in De Bari et al (De Bari et al. 2001). Briefly, small pieces of skin dermis were digested in a solution of hyaluronidase (Sigma-Aldrich, USA) at a concentration of 1 mg/ml for 15 minutes at 37° C. and then treated with 6 mg/ml collagenase type IV (Invitrogen) for 2 hours at 37° C. Then, the cells were washed, resuspended in DMEM culture medium with high glucose (Dulbecco's Modified Eagle's Medium, Invitrogen) supplemented with 1% antibiotic-antimycotic (Invitrogen) and 1% pyruvate Sodium (Invitrogen), and seeded in culture dishes at a concentration of 10,000 cells per square centimeter. When the cells reached confluence, adherent cells were detached using 0.5% sterile trypsin (Invitrogen) and used between passages 3 and 9. For tests shown below, the PHF were plated in 24-well plates at a concentration of 25,000 cells per well.
# After 48 hours of culture, cells were harvested and paraffin cell-blocks for immunohistochemical analysis were constructed, as previously explained in Example 1.
# In immunohistochemical assays the expression of the following markers were studied: TGFα (SAB4502953), TGF1 (SAB4502954), TGFβ2 (SAB4502956), TGFβ3 (SAB4502957), SPARC (HPA002989), MMP-3 (HPA007875) MMP-7 (SAB4501894), MMP-9 (SAB4501896), MMP-11 (SAB4501898), MMP-13 (SAB4501900) and MMP-14 (SAB4501901) using specific antibodies against them. All antibodies used were rabbit polyclonal antibodies obtained from Sigma-Aldrich and were used at a concentration of 1/1000. All experiments were carried out sixfold.
# On each of the six sections cell counts were performed in 20 high power fields (400×) through an Olympus microscope (model CX31) to assess the immunostaining. On each of the fields total cell number and number of cells displaying immunostaining were counted, being then the percentage of cells displaying said immunostaining.
# [2] = test system: fibroblasts (PHF) co-cultured with tumor cells, ovarian carcinoma (EFO-27); test: Marker expression (IHC) in PHF co-cultured with EFO-27 tumor cells; format: cell-based, human; details: co-culture with EFO-27; SP 1 μM; 48 h;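 also: values are the percentage of PHF fibroblasts positive for each marker, cultured in fresh plasma from a healthy human donor, each experiment run in six replicates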
# Experimental: (§1) All cultures were maintained 48 hours, following which the same cells were included in paraffin blocks for subsequent analysis of the expression of different markers by immunohistochemistry (see Example 1). […] All experiments were carried out sixfold. Analyzed markers in fibroblast cells (stromal cells) were: TGF-α, TGF-β1, TGF-β2, TGF-β3, SPARC, MMP-3, MMP-7, MMP-9, MMP-11, MMP-13 and MMP-14.
# [3] = test system: fibroblasts (PHF) co-cultured with tumor cells of human cervix carcinoma (KB); test: Marker expression (IHC) in PHF co-cultured with KB tumor cells; format: cell-based; details: co-culture with KB; SP 1 μM; 48 h;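 also: percentage of PHF fibroblasts showing expression of each marker, cultured in fresh blood plasma from a healthy human donor, six replicates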
# Experimental: as §1
# [4] = test system: fibroblasts (PHF) co-cultivated with tumor cell lymphoblastic leukemia B (SDI); test: Marker expression (IHC) in PHF co-cultured with SDI tumor cells; format: cell-based, human; details: PHF co-cultivated with SDI + SP
# Experimental: as §1
# [5] = test system: fibroblasts (PHF) co-cultured with tumor cells of human Burkitt lymphoma (CA-46); test: Marker expression (IHC) in PHF co-cultured with CA-46 tumor cells; format: cell-based; details: PHF co-cultured with CA-46 + SP;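 also: percentage of PHF fibroblasts positive for each marker, cultures grown in fresh human plasma from a healthy donor, six replicates, compared with fibroblasts cultured alone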
# Experimental: (§2) All cultures were maintained 48 hours, following which the same cells were included in paraffin blocks for subsequent analysis of the expression of different markers by immunohistochemistry (see Example 1). The primary antibodies used to perform immunohistochemical assays and their concentration are detailed in Example 2. All experiments were carried out sixfold. Analyzed markers in fibroblast cells (stromal cells) were: TGF-α, TGF-β1, TGF-β2, TGF-β3, SPARC, MMP-3, MMP-7, MMP-9, MMP-11, MMP-13 and MMP-14.
# [6] = test system: fibroblasts (PHF) co-cultured with tumor cells of human gastric adenocarcinoma (23132/87); test: Marker expression (IHC) in PHF co-cultured with 23132/87 tumor cells; format: cell-based; details: co-culture with 23132/87; SP 1 μM; 48 h;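 also: cultures grown in fresh plasma from a healthy human donor, values give the percentage of PHF fibroblasts positive for the marker, each experiment run in six replicates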
# Experimental: as §2
# [7] = test system: macrophages in co-culture with cells isolated from primary human tumors; test: Marker expression (IHC) in macrophages co-cultured with primary human tumor cells (colon, breast, ovarian, lung carcinoma, melanoma); format: cell-based; details: SP 1 μM;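 also: macrophages came from pleural or peritoneal washings of the patient who also supplied the tumor cells, and both were co-cultured on fresh blood plasma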
# Experimental: To check that the interaction of tumor cells obtained directly from primary human immune cell/inflammatory (macrophages) cells, obtained from the patient stimulate secretion of substances by these macrophages recognized as important in survival of both cell types and in the progression of tumor cells, co-cultures were performed on fresh blood plasma, immune cell/inflammatory (macrophages) with tumor cells derived from primary tumors. All obtained from the same patient, to build an experimental model similar to human physiology.
# Macrophages were obtained from washing or pleural or peritoneal from the same patient from which the primary tumor cells were obtained in each case.
# [8] = test system: fibroblasts (PHF) co-cultured with tumor cells of human breast carcinoma (MCF-7); test: Marker expression (IHC) in PHF co-cultured with MCF-7 tumor cells; format: cell-based; details: co-culture with MCF-7; SP 1 μM; 48 h;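 also: value is the percentage of fibroblasts positive for each marker, with fibroblasts cultured alone as reference, grown in fresh plasma from a healthy donor, six replicates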
# Experimental: as §1
# [9] = co-culture with cells isolated from breast carcinoma
# [10] = co-culture with cells isolated from colon carcinoma
# [11] = co-culture with cells isolated from lung carcinoma
# [12] = co-culture with cells isolated from melanoma
# [13] = co-culture with cells isolated from ovarian carcinoma
structure (smiles),measurement,setting,value
CSCC[C@H](NC(=O)[C@H](CC(C)C)NC(=O)CNC(=O)[C@H](Cc1ccccc1)NC(=O)[C@H](Cc1ccccc1)NC(=O)[C@H](CCC(N)=O)NC(=O)[C@H](CCC(N)=O)NC(=O)[C@@H]1CCCN1C(=O)[C@H](CCCCN)NC(=O)[C@@H]1CCCN1C(=O)[C@@H](N)CCCNC(=N)N)C(N)=O [SP],PHF cells expressing MMP-3,[1],33.9 ± 2.2%
same,PHF cells expressing MMP-7,[1],46.2 ± 2.3%
same,PHF cells expressing MMP-9,[1],35.5 ± 2.5%
same,PHF cells expressing MMP-11,[1],7.8 ± 2.9%
same,PHF cells expressing MMP-13,[1],17.1 ± 2.6%
same,PHF cells expressing MMP-14,[1],47.3 ± 2.5%
same,PHF cells expressing SPARC,[1],16 ± 1.9%
same,PHF cells expressing TGFα,[1],16.5 ± 1.2%
same,PHF cells expressing TGFβ 1,[1],18.4 ± 1.3%
same,PHF cells expressing TGFβ 2,[1],24.6 ± 1.4%
same,PHF cells expressing TGFβ 3,[1],23.1 ± 1.7%
same,PHF cells expressing MMP-3,[2],44.4 ± 1.5%
same,PHF cells expressing MMP-7,[2],55.1 ± 2.6%
same,PHF cells expressing MMP-9,[2],56.6 ± 1.7%
same,PHF cells expressing MMP-11,[2],22.4 ± 2.6%
same,PHF cells expressing MMP-13,[2],55 ± 2.5%
same,PHF cells expressing MMP-14,[2],46.2 ± 2.5%
same,PHF cells expressing SPARC,[2],46 ± 2.2%
same,PHF cells expressing TGF-α,[2],37.2 ± 2.1%
same,PHF cells expressing TGF-β1,[2],35.5 ± 2.1%
same,PHF cells expressing TGF-β2,[2],45.4 ± 1.2%
same,PHF cells expressing TGF-β3,[2],42 ± 1.6%
same,PHF cells expressing MMP-3,[3],42.6 ± 1.8%
same,PHF cells expressing MMP-7,[3],57.5 ± 5.8%
same,PHF cells expressing MMP-9,[3],57.3 ± 6.4%
same,PHF cells expressing MMP-11,[3],36.4 ± 6.8%
same,PHF cells expressing MMP-13,[3],45.4 ± 3.7%
same,PHF cells expressing MMP-14,[3],51.6 ± 3.5%
same,PHF cells expressing SPARC,[3],46.9 ± 1.6%
same,PHF cells expressing TGF-α,[3],33.4 ± 1.1%
same,PHF cells expressing TGF-β1,[3],34.5 ± 1.1%
same,PHF cells expressing TGF-β2,[3],45.6 ± 1.1%
same,PHF cells expressing TGF-β3,[3],44.5 ± 3.1%
same,cells expressing MMP-3,[4],53.4 ± 5.7%
same,cells expressing MMP-7,[4],59.1 ± 4.8%
same,cells expressing MMP-9,[4],59.3 ± 3.4%
same,cells expressing MMP-11,[4],47.4 ± 4.8%
same,cells expressing MMP-13,[4],49.5 ± 6.5%
same,cells expressing MMP-14,[4],53.9 ± 5.5%
same,cells expressing SPARC,[4],56 ± 6.2%
same,cells expressing TGF-α,[4],41.4 ± 3.1%
same,cells expressing TGF-β1,[4],42.5 ± 4.2%
same,cells expressing TGF-β2,[4],50.5 ± 1.1%
same,cells expressing TGF-β3,[4],51.4 ± 5.5%
same,cells expressing MMP-3,[5],63.4 ± 4.3%
same,cells expressing MMP-7,[5],66.1 ± 3.8%
same,cells expressing MMP-9,[5],72.3 ± 4.4%
same,cells expressing MMP-11,[5],67.4 ± 5.8%
same,cells expressing MMP-13,[5],55 ± 6.4%
same,cells expressing MMP-14,[5],59.1 ± 6.3%
same,cells expressing SPARC,[5],77 ± 4.2%
same,cells expressing TGF-α,[5],61.4 ± 5.1%
same,cells expressing TGF-β1,[5],63.4 ± 4.1%
same,cells expressing TGF-β2,[5],60.5 ± 5.1%
same,cells expressing TGF-β3,[5],71 ± 4.56%
same,PHF cells expressing MMP-3,[6],43.4 ± 1.7%
same,PHF cells expressing MMP-7,[6],56.1 ± 2.8%
same,PHF cells expressing MMP-9,[6],52.3 ± 1.4%
same,PHF cells expressing MMP-11,[6],27.4 ± 2.8%
same,PHF cells expressing MMP-13,[6],45 ± 3.5%
same,PHF cells expressing MMP-14,[6],49.2 ± 4.5%
same,PHF cells expressing SPARC,[6],47 ± 1.2%
same,PHF cells expressing TGF-α,[6],32.4 ± 1.1%
same,PHF cells expressing TGF-β1,[6],33.5 ± 1.1%
same,PHF cells expressing TGF-β2,[6],40.5 ± 1.1%
same,PHF cells expressing TGF-β3,[6],41 ± 1.56%
same,Percentage of macrophages which expressed EGF,[7]; [9],41.6 ± 4.2%
same,Percentage of macrophages which expressed MMP-9,[7]; [9],39.5 ± 3.2%
same,Percentage of macrophages which expressed VEGF,[7]; [9],37.4 ± 4.2%
same,Percentage of macrophages which expressed EGF,[7]; [10],41.4 ± 4.2%
same,Percentage of macrophages which expressed MMP-9,[7]; [10],39.5 ± 3.5%
same,Percentage of macrophages which expressed VEGF,[7]; [10],38.5 ± 2.9%
same,Percentage of macrophages which expressed EGF,[7]; [11],38.4 ± 2.9%
same,Percentage of macrophages which expressed MMP-9,[7]; [11],39.4 ± 3.7%
same,Percentage of macrophages which expressed VEGF,[7]; [11],37.4 ± 4.2%
same,Percentage of macrophages which expressed EGF,[7]; [12],41.9 ± 3.2%
same,Percentage of macrophages which expressed MMP-9,[7]; [12],39.5 ± 5.3%
same,Percentage of macrophages which expressed VEGF,[7]; [12],35.4 ± 4.4%
same,Percentage of macrophages which expressed EGF,[7]; [13],41.5 ± 4.2%
same,Percentage of macrophages which expressed MMP-9,[7]; [13],39.5 ± 3.2%
same,Percentage of macrophages which expressed VEGF,[7]; [13],37.4 ± 4%
same,PHF cells expressing MMP-3,[8],44.5 ± 1.8%
same,PHF cells expressing MMP-7,[8],57.1 ± 2.7%
same,PHF cells expressing MMP-9,[8],55.3 ± 1.7%
same,PHF cells expressing MMP-11,[8],25.4 ± 2.7%
same,PHF cells expressing MMP-13,[8],46 ± 3.6%
same,PHF cells expressing MMP-14,[8],48.2 ± 3.5%
same,PHF cells expressing SPARC,[8],49 ± 1.5%
same,PHF cells expressing TGF-α,[8],42.6 ± 1.1%
same,PHF cells expressing TGF-β1,[8],43.2 ± 1%
same,PHF cells expressing TGF-β2,[8],42.6 ± 2.1%
same,PHF cells expressing TGF-β3,[8],46 ± 1.7%
